Laboratory results from patent US20100035929A1, “UNNATURAL DISPYRIN ANALOGUES, PREPARATION AND USES THEREOF” (priority 2008, published 2010).
Where two headings read alike, the source gives them in different places.

Key:
[1] = target: T1, human H3 receptor (Homo sapiens, UniProt Q9Y5N1); experiment: H3 antagonist activity / inhibition (IC50); assay type: biochemical
Excerpt: (§1) In one aspect, H3 affinity (Ki) and inhibition (IC50) can be determined in 5-point concentration response curves. Using data obtained from such methods, SAR can be established.

[2] = target: T1, human H3 receptor; experiment: H3 affinity, radioligand binding assay employing [3H](R)-α-methylhistamine
Excerpt: as §1

[3] = system: other GPCRs and ion channels; experiment: MDS Pharma Services radioligand binding panel, initial screen at single 10 μM concentration: other targets; settings: at 10 μM; none with significant activity (no Kis or IC50s<10 μM)
Method: (§2) Multiple screening avenues were pursued to identify the biological activity of dispyrin. Dispyrin was submitted to the screening deck of the Molecular Library Screening Network (MLSCN) and was evaluated against several GPCR targets (M1, M4, D1/D5, mGluR5, mGluR4) in agonist, antagonist and potentiator mode. Utilizing panels of radioligand binding assays from several companies, dispyrin was evaluated against >200 discrete molecular targets over the course of two months. The MDS Pharma Services panel identified multiple activities for dispyrin. […] Other modest activities at the 50-60% range at 10 u.M included other GPCRs and ion channels, but none with significant activity (no Kis or IC50s<10 μM).

[4] = system: calcium and potassium ion channels, including hERG; experiment: MDS Pharma Services radioligand binding panel, initial screen at single 10 μM concentration: ion channels; settings: human, read-out: inhibition of a number of calcium and potassium ion channels, including hERG
Method: as §2

[5] = 5-point concentration response curves, read-out: H3 IC50
[6] = 5-point concentration response curves, read-out: H3 Ki

T1 sequence (Q9Y5N1 whole entry): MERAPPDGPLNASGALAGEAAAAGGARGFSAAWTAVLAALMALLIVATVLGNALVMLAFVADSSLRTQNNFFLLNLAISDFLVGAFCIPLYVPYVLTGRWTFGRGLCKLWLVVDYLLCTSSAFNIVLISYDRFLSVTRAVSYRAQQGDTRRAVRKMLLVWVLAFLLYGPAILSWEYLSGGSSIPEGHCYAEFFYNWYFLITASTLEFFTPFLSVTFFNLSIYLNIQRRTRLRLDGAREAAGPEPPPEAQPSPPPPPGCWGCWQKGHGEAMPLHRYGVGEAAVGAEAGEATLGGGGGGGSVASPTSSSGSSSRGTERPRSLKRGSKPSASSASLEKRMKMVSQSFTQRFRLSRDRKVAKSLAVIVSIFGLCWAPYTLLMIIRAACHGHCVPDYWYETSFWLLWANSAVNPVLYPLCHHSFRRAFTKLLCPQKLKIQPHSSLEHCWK

Compound | IC50 [1, 5] [nM] | Ki [2, 6] [nM] | also measured
CN(C)CCCOc1ccc(CCNC(=O)c2cc(Br)cs2)cc1Br [4-bromo-N-(3-bromo-4-(3-(dimethylamino)propoxy)phenethyl)thiophene-2-carboxamide] | 3600 | 1600 | –
O=C(NCCc1ccc(OCCN2CCCC2)c(Br)c1)c1ccc(Br)o1 [5-bromo-N-(3-bromo-4-(2-(pyrrolidin-1-yl)ethoxy)phenethyl)furan-2-carboxamide] | 390 | 170 | –
O=C(NCCc1ccc(OCCN2CCCC2)c(Br)c1)c1cccc(Br)c1 [3-bromo-N-(3-bromo-4-(2-(pyrrolidin-1-yl)ethoxy)phenethyl)benzamide] | 450 | 210 | –
CN1CCCC(COc2ccc(CCNC(=O)c3cc(Br)c[nH]3)cc2Br)C1 (stereo not shown) [4-bromo-N-(3-bromo-4-((1-methylpiperidin-3-yl)methoxy)phenethyl)-1H-pyrrole-2-carboxamide] | 2900 | 1300 | –
CN1CCCC(COc2ccc(CCNC(=O)c3ccc(Br)o3)cc2Br)C1 (stereo not shown) [5-bromo-N-(3-bromo-4-((1-methylpiperidin-3-yl)methoxy)phenethyl)furan-2-carboxamide] | 4500 | 2100 | –
O=C(NCCc1ccc(OCCN2CC[C@@H](F)C2)c(Br)c1)c1cc(Br)cs1 | 2100 | 1100 | –
O=C(NCCc1ccc(OCCN2CCCC2)c(Br)c1)c1cc(Br)cs1 [4-bromo-N-(3-bromo-4-(2-(pyrrolidin-1-yl)ethoxy)phenethyl)thiophene-2-carboxamide] | 180 | 80 | –
Cn1cccc1C(=O)NCCc1ccc(OCCN2CCCC2)c(Br)c1 [N-(3-bromo-4-(2-(pyrrolidin-1-yl)ethoxy)phenethyl)-1-methyl-1H-pyrrole-2-carboxamide] | 390 | 130 | –
CN(C)CCOc1ccc(CCNC(=O)c2cc(Br)cs2)cc1Br [4-bromo-N-(3-bromo-4-(2-(dimethylamino)ethoxy)phenethyl)thiophene-2-carboxamide] | 1500 | 670 | –
O=C(NCCc1ccc(OCCN2CCCC2)c(Cl)c1)c1cc(Br)cs1 [4-bromo-N-(3-chloro-4-(2-(pyrrolidin-1-yl)ethoxy)phenethyl)thiophene-2-carboxamide] | 350 | 160 | –
C[C@H]1CCCN1CCOc1ccc(CCNC(=O)c2cc(Br)cs2)cc1Br [(S)-4-bromo-N-(3-bromo-4-(2-(2-methylpyrrolidin-1-yl)ethoxy)phenethyl)thiophene-2-carboxamide] | 750 | 330 | –
CN(C)CCOc1ccc(CCNC(=O)c2ccc[nH]2)cc1Br [N-(3-bromo-4-(2-(dimethylamino)ethoxy)phenethyl)-1H-pyrrole-2-carboxamide] | 3400 | 1500 | –
CN1CCCC(COc2ccc(CCNC(=O)c3cc(Br)cs3)cc2Br)C1 (stereo not shown) [4-bromo-N-(3-bromo-4-((1-methylpiperidin-3-yl)methoxy)phenethyl)thiophene-2-carboxamide] | 1700 | 1200 | –
O=C(NCc1ccc(OCCN2CCCC2)c(Cl)c1)c1cc(Br)cs1 [4-bromo-N-(3-chloro-4-(2-(pyrrolidin-1-yl)ethoxy)benzyl)thiophene-2-carboxamide] | 2400 | 1100 | –
O=C(NCCc1ccc(OCCN2CCCC2)c(Br)c1)c1cc(Br)c[nH]1 [4-bromo-N-(3-bromo-4-(2-(pyrrolidin-1-yl)ethoxy)phenethyl)-1H-pyrrole-2-carboxamide] | 430 | 190 | –
O=C(NCCc1ccc(OCCN2CC[C@H](F)C2)c(Br)c1)c1cc(Br)cs1 [(S)-4-bromo-N-(3-bromo-4-(2-(3-fiuoropyrrolidin-1-yl)ethoxy)phenethyl)thiophene-2-carboxamide] | 2500 | 1100 | –
N-(3-bromo-4-(2-(pyrrolidin-1- yl)ethoxy)phenethyl)thiazole-5-carboxamide | 72 | 32 | –
CN(C)CCCOc1ccc(CCNC(=O)c2ccc(Br)o2)cc1Br [5-bromo-N-(3-bromo-4-(3-(dimethylamino)propoxy)phenethyl)furan-2-carboxamide] | 4800 | 2200 | –
CN(C)CCOc1ccc(CCNC(=O)c2cc(Br)c[nH]2)cc1Br [4-bromo-N-(3-bromo-4-(2-(dimethylamino)ethoxy)phenethyl)-1H-pyrrole-2-carboxamide] | 3700 | 1600 | –
CN(C)CCOc1ccc(CCNC(=O)c2cccn2C)cc1Br [N-(3-bromo-4-(2-(dimethylamino)ethoxy)phenethyl)-1-methyl-1H-pyrrole-2-carboxamide] | 4500 | 2100 | –
C[C@@H]1CCCN1CCOc1ccc(CCNC(=O)c2cc(Br)cs2)cc1Br [(R)-4-bromo-N-(3-bromo-4-(2-(2-methylpyrrolidin-1-yl)ethoxy)phenethyl)thiophene-2-carboxamide] | 710 | 310 | –
CN(C)CCOc1ccc(CCNC(=O)c2ccc(Br)o2)cc1Br [5-bromo-N-(3-bromo-4-(2-(dimethylamino)ethoxy)phenethyl)furan-2-carboxamide] | 5900 | 2700 | –

Now from value to compound, other results behind:

IC50 [1, 5] [nM] | Ki [2, 6] [nM] | Compound | also measured
3600 | 1500 | CN1CCCC(COc2ccc(CCNC(=O)c3ccc[nH]3)cc2Br)C1 (stereo not shown) [N-(3-bromo-4-((1-methylpiperidin-3-yl)methoxy)phenethyl)-1H-pyrrole-2-carboxamide] | –
550 | 250 | O=C(NCCc1ccc(OCCN2CCCC2)c(Br)c1)c1cccc(Cl)c1 [N-(3-bromo-4-(2-(pyrrolidin-1-yl)ethoxy)phenethyl)-3-chlorobenzamide] | –
2400 | 1100 | CN(C)CCCOc1ccc(CCNC(=O)c2cc(Br)c[nH]2)cc1Br [dispyrin, 4-bromo-N-(3-bromo-4-(3-(dimethylamino)propoxy)phenethyl)-1H-pyrrole-2-carboxamide] | IC50 ([1]; read-out: IC50, human H3 antagonist): 2350 nM; IC50 ([1]; text of b259, read-out: IC50, human H3 antagonist): 2350 nM; other modest activities (other GPCRs and ion channels) [3]: 50-60%; inhibition at 10 µM [4]: 50 to 60%; Ki ([2]; radioligand binding assay employing [3H](R)-α-methylhistamine, read-out: Ki, affinity for the human H3 receptor): 1040 nM
260 | 116 | O=C(NCCc1ccc(OCCN2CCCC2)c(Br)c1)c1nccs1 [N-(3-bromo-4-(2-(pyrrolidin-1-yl)ethoxy)phenethyl)thiazole-2-carboxamide] | –
83 | 37 | O=C(NCCc1ccc(OCCN2CCCC2)c(Br)c1)c1cnco1 [N-(3-bromo-4-(2-(pyrrolidin-1-yl)ethoxy)phenethyl)oxazole-5-carboxamide] | –
560 | 270 | O=C(NCCc1ccc(OCCN2CCCC2)c(Br)c1)c1cccc(C(F)(F)F)n1 [N-(3-bromo-4-(2-(pyrrolidin-1-yl)ethoxy)phenethyl)-6-(trifluoromethyl)picolinamide] | –
2900 | 1300 | CN(C)CCCOc1ccc(CCNC(=O)c2ccc[nH]2)cc1Br [N-(3-bromo-4-(3-(dimethylamino)propoxy)phenethyl)-1H-pyrrole-2-carboxamide] | –
380 | 150 | O=C(NCCc1ccc(OCCN2CCCC2)c(Br)c1)c1ccc[nH]1 [N-(3-bromo-4-(2-(pyrrolidin-1-yl)ethoxy)phenethyl)-1H-pyrrole-2-carboxamide] | –
980 | 440 | O=C(NCCc1ccc(OCCN2CCCC2)c(Br)c1)c1cccc(C(F)(F)F)c1 [N-(3-bromo-4-(2-(pyrrolidin-1-yl)ethoxy)phenethyl)-3-(trifluoromethyl)benzamide] | –
3900 | 1700 | CN(C)CCCOc1ccc(CCNC(=O)c2cccn2C)cc1Br [N-(3-bromo-4-(3-(dimethylamino)propoxy)phenethyl)-1-methyl-1H-pyrrole-2-carboxamide] | –
970 | 430 | O=C(NCCc1ccc(OCCN2CCCC2)c(Br)c1)c1nnc[nH]1 [N-(3-bromo-4-(2-(pyrrolidin-1-yl)ethoxy)phenethyl)-4H-1,2,4-triazole-3-carboxamide] | –
2100 | 910 | CN1CCCC(COc2ccc(CCNC(=O)c3cccn3C)cc2Br)C1 (stereo not shown) [N-(3-bromo-4-((1-methylpiperidin-3-yl)methoxy)phenethyl)-1-methyl-1H-pyrrole-2-carboxamide] | –
